{
  "source": "paper PMC5218480",
  "about": "(PLoS ONE, 2017)",
  "test_system": "MV-4-11 cells",
  "assay": "Gene expression microarray analysis (Affymetrix PrimeView) and GSEA",
  "type": "cell-based, human",
  "parameters": "RFU PODN (11730768_x_at) / Fold change /veh PODN (11730768_x_at) / RFU LINC00158 (11744669_a_at) / Fold change /veh LINC00158 (11744669_a_at) / RFU DUSP10 (11751237_a_at) / Fold change /veh DUSP10 (11751237_a_at) / RFU ID3 (11757404_x_at) / Fold change /veh ID3 (11757404_x_at) / RFU PLEKHG5 (11737974_s_at) / Fold change /veh PLEKHG5 (11737974_s_at) / RFU LRRC4B (11730491_at) / Fold change /veh LRRC4B (11730491_at) / RFU GIMAP4 (11747438_a_at) / Fold change /veh GIMAP4 (11747438_a_at) / RFU KRT8 (11758183_x_at) / Fold change /veh KRT8 (11758183_x_at) / RFU CNN1 (11734310_a_at) / Fold change /veh CNN1 (11734310_a_at) / RFU VPS37D (11726825_at) / Fold change /veh VPS37D (11726825_at) / RFU C10orf10 (11716522_x_at) / Fold change /veh C10orf10 (11716522_x_at) / RFU KIR2DL2 /// KIR2DL4 /// KIR2DL5A /// KIR2DL5B /// KIR2DS1 /// KIR2DS2 /// KIR2DS3 /// KIR2DS4 /// KIR3DL3 /// KIR3DL3 /// KIR3DS1 (11738374_at) / Fold change /veh KIR2DL2 /// KIR2DL4 /// KIR2DL5A /// KIR2DL5B /// KIR2DS1 /// KIR2DS2 /// KIR2DS3 /// KIR2DS4 /// KIR3DL3 /// KIR3DL3 /// KIR3DS1 (11738374_at) / RFU C1QL1 (11718748_at) / Fold change /veh C1QL1 (11718748_at) / RFU TMPRSS4 (11747572_a_at) / Fold change /veh TMPRSS4 (11747572_a_at) / RFU HAMP (11756126_x_at) / Fold change /veh HAMP (11756126_x_at) / RFU RNFT2 (11725882_a_at) / Fold change /veh RNFT2 (11725882_a_at) / RFU NR4A2 (11747474_a_at) / Fold change /veh NR4A2 (11747474_a_at) / RFU ABCC12 (11746883_a_at) / Fold change /veh ABCC12 (11746883_a_at) / RFU TMEM136 (11760407_x_at) / Fold change /veh TMEM136 (11760407_x_at) / RFU CLDN22 /// WWC2 (11732394_at) / Fold change /veh CLDN22 /// WWC2 (11732394_at) / RFU HLA-DPB1 (11760878_x_at) / Fold change /veh HLA-DPB1 (11760878_x_at) / RFU SPINT1 (11716480_a_at) / Fold change /veh SPINT1 (11716480_a_at) / RFU GAP43 (11754022_s_at) / Fold change /veh GAP43 (11754022_s_at) / RFU A4GNT (11735810_at) / Fold change /veh A4GNT (11735810_at) / RFU PRB3 (11715151_x_at) / Fold change /veh PRB3 (11715151_x_at) / RFU TUBB4B (11761932_at) / Fold change /veh TUBB4B (11761932_at) / RFU CAPN14 (11732068_a_at) / Fold change /veh CAPN14 (11732068_a_at) / RFU TMCC2 (11721928_a_at) / Fold change /veh TMCC2 (11721928_a_at) / RFU IRGQ (11745062_a_at) / Fold change /veh IRGQ (11745062_a_at) / RFU FAM174B (11720279_a_at) / Fold change /veh FAM174B (11720279_a_at) / RFU TMPRSS4 (11748680_a_at) / Fold change /veh TMPRSS4 (11748680_a_at) / RFU FAM212B (11763350_a_at) / Fold change /veh FAM212B (11763350_a_at) / RFU PLEKHG5 (11743358_a_at) / Fold change /veh PLEKHG5 (11743358_a_at) / RFU ZSCAN30 (11745921_a_at) / Fold change /veh ZSCAN30 (11745921_a_at) / RFU CMKLR1 (11741424_a_at) / Fold change /veh CMKLR1 (11741424_a_at) / RFU LOC101060620 /// MAPK8IP1 (11723275_at) / Fold change /veh LOC101060620 /// MAPK8IP1 (11723275_at) / RFU SPTSSB (11747773_x_at) / Fold change /veh SPTSSB (11747773_x_at) / RFU PRSS12 (11739890_at) / Fold change /veh PRSS12 (11739890_at) / RFU BIN1 (11741810_x_at) / Fold change /veh BIN1 (11741810_x_at) / RFU WNT11 (11732464_a_at) / Fold change /veh WNT11 (11732464_a_at) / RFU C10orf10 (11716521_a_at) / Fold change /veh C10orf10 (11716521_a_at) / RFU C5orf56 (11738089_at) / Fold change /veh C5orf56 (11738089_at) / RFU CYB561 (11721691_x_at) / Fold change /veh CYB561 (11721691_x_at) / RFU ANKRD19P (11752326_a_at) / Fold change /veh ANKRD19P (11752326_a_at) / RFU OR2T12 /// OR2T33 /// OR2T8 (11738714_s_at) / Fold change /veh OR2T12 /// OR2T33 /// OR2T8 (11738714_s_at) / RFU VCAN (11748164_a_at) / Fold change /veh VCAN (11748164_a_at) / RFU JSRP1 (11732532_at) / Fold change /veh JSRP1 (11732532_at) / RFU KRTAP10-11 (11738290_x_at) / Fold change /veh KRTAP10-11 (11738290_x_at) / RFU MYO3A (11730013_a_at) / Fold change /veh MYO3A (11730013_a_at) / RFU EBF3 (11725865_a_at) / Fold change /veh EBF3 (11725865_a_at) / RFU CAMK2N1 (11719241_x_at) / Fold change /veh CAMK2N1 (11719241_x_at) / RFU C5orf56 (11738088_a_at) / Fold change /veh C5orf56 (11738088_a_at) / RFU OLFML3 (11715873_a_at) / Fold change /veh OLFML3 (11715873_a_at) / RFU LOC100653217 /// NTM (11731650_a_at) / Fold change /veh LOC100653217 /// NTM (11731650_a_at) / RFU MAPK11 (11762145_a_at) / Fold change /veh MAPK11 (11762145_a_at) / RFU FIZ1 (11724087_x_at) / Fold change /veh FIZ1 (11724087_x_at) / RFU OASL (11726364_x_at) / Fold change /veh OASL (11726364_x_at) / RFU SOX15 (11748057_x_at) / Fold change /veh SOX15 (11748057_x_at) / RFU CD79A (11719716_a_at) / Fold change /veh CD79A (11719716_a_at) / RFU HIST1H1D (11736915_at) / Fold change /veh HIST1H1D (11736915_at) / RFU CASKIN2 (11723855_a_at) / Fold change /veh CASKIN2 (11723855_a_at) / RFU LOC730098 (11760151_x_at) / Fold change /veh LOC730098 (11760151_x_at) / RFU OR4N2 (11742367_at) / Fold change /veh OR4N2 (11742367_at) / RFU PRRT2 (11749266_a_at) / Fold change /veh PRRT2 (11749266_a_at) / RFU SNX32 (11753110_a_at) / Fold change /veh SNX32 (11753110_a_at) / RFU CDHR5 (11726645_a_at) / Fold change /veh CDHR5 (11726645_a_at) / RFU RCAN1 (11760418_a_at) / Fold change /veh RCAN1 (11760418_a_at) / RFU FAM167A (11723789_a_at) / Fold change /veh FAM167A (11723789_a_at) / RFU FAM26E (11764081_at) / Fold change /veh FAM26E (11764081_at) / RFU ISYNA1 (11749810_s_at) / Fold change /veh ISYNA1 (11749810_s_at) / RFU ACY1 (11761880_at) / Fold change /veh ACY1 (11761880_at) / RFU 11764098_at / Fold change /veh 11764098_at / RFU SAMD14 (11745864_x_at) / Fold change /veh SAMD14 (11745864_x_at) / RFU NPB (11741838_a_at) / Fold change /veh NPB (11741838_a_at) / RFU TMPRSS6 (11731388_a_at) / Fold change /veh TMPRSS6 (11731388_a_at) / RFU KRTAP10-2 (11738614_at) / Fold change /veh KRTAP10-2 (11738614_at) / RFU ARHGAP8 /// PRR5-ARHGAP8 (11727945_x_at) / Fold change /veh ARHGAP8 /// PRR5-ARHGAP8 (11727945_x_at) / RFU KRTAP5-7 /// NADSYN1 (11734609_at) / Fold change /veh KRTAP5-7 /// NADSYN1 (11734609_at) / RFU RASL12 (11751679_a_at) / Fold change /veh RASL12 (11751679_a_at) / RFU CDKN2B (11736163_a_at) / Fold change /veh CDKN2B (11736163_a_at) / RFU PRF1 (11729649_at) / Fold change /veh PRF1 (11729649_at) / RFU, ZNF638 /// ZNF638-IT1 / Fold change vs veh, ZNF638 /// ZNF638-IT1 / RFU, PANK3 / Fold change vs veh, PANK3 / RFU, SH3YL1 / Fold change vs veh, SH3YL1 / RFU, ZEB2 / Fold change vs veh, ZEB2 / RFU, NRIP1 / Fold change vs veh, NRIP1 / RFU, PTTG1IP / Fold change vs veh, PTTG1IP / RFU, CAPN2 / Fold change vs veh, CAPN2 / RFU, MED14 / Fold change vs veh, MED14 / RFU, SNORA58 / Fold change vs veh, SNORA58 / RFU, C1orf63 / Fold change vs veh, C1orf63 / RFU, LRRFIP1 / Fold change vs veh, LRRFIP1 / RFU, NDUFAF7 / Fold change vs veh, NDUFAF7 / RFU, SLC12A2 / Fold change vs veh, SLC12A2 / RFU, IBTK / Fold change vs veh, IBTK / RFU, ESF1 / Fold change vs veh, ESF1 / Fold change vs veh, TMEM50B / RFU, TAOK1 / Fold change vs veh, TAOK1 / RFU, ACBD3 / Fold change vs veh, ACBD3 / RFU, TMA16 / Fold change vs veh, TMA16 / RFU, RWDD3 / Fold change vs veh, RWDD3 / RFU, BCAT1 / Fold change vs veh, BCAT1 / RFU, EDEM3 / Fold change vs veh, EDEM3 / RFU, TMEM33 / Fold change vs veh, TMEM33 / RFU, WDR75 / Fold change vs veh, WDR75 / RFU, AHCTF1 / Fold change vs veh, AHCTF1 / RFU, TFRC / Fold change vs veh, TFRC / RFU, ZDHHC17 / Fold change vs veh, ZDHHC17 / RFU, NOM1 / Fold change vs veh, NOM1 / RFU, ARL8B / Fold change vs veh, ARL8B / RFU, ZBTB11 / Fold change vs veh, ZBTB11 / RFU, TAMM41 / Fold change vs veh, TAMM41 / RFU, KIAA1704 /// LOC100996395 / Fold change vs veh, KIAA1704 /// LOC100996395 / RFU, ING1 / Fold change vs veh, ING1 / RFU, TRMT61B / Fold change vs veh, TRMT61B / RFU, FUBP3 / Fold change vs veh, FUBP3 / RFU, TP53 / Fold change vs veh, TP53 / RFU, TNKS2 / Fold change vs veh, TNKS2 / RFU, ZFP14 / Fold change vs veh, ZFP14 / RFU, ACTR2 / Fold change vs veh, ACTR2 / RFU, PPP3R1 / Fold change vs veh, PPP3R1 / RFU, PIK3R1 / Fold change vs veh, PIK3R1 / RFU, HNRNPA1 / Fold change vs veh, HNRNPA1 / RFU, RNF170 / Fold change vs veh, RNF170 / RFU, ZNF28 / Fold change vs veh, ZNF28 / RFU, RNGTT / Fold change vs veh, RNGTT / RFU, OGT / Fold change vs veh, OGT / RFU, BRD1 / Fold change vs veh, BRD1 / RFU, MARS / Fold change vs veh, MARS / RFU, ZNF655 / Fold change vs veh, ZNF655 / RFU, FAHD1 / Fold change vs veh, FAHD1 / RFU, BDP1 / Fold change vs veh, BDP1 / RFU, LRRCC1 / Fold change vs veh, LRRCC1 / RFU, ARID1A / Fold change vs veh, ARID1A / RFU, ZNF146 / Fold change vs veh, ZNF146 / RFU, ZNF330 / Fold change vs veh, ZNF330 / RFU, GPN3 / Fold change vs veh, GPN3 / RFU, C9orf123 / Fold change vs veh, C9orf123 / RFU, N4BP2L2 / Fold change vs veh, N4BP2L2 / RFU, ARFIP1 / Fold change vs veh, ARFIP1 / RFU, FAM179B / Fold change vs veh, FAM179B / RFU, BCL10 / Fold change vs veh, BCL10 / RFU, UHRF1BP1L / Fold change vs veh, UHRF1BP1L / RFU, BET1 / Fold change vs veh, BET1 / RFU, CNOT2 / Fold change vs veh, CNOT2 / RFU, ZNF268 / Fold change vs veh, ZNF268 / Fold change vs veh, ZNF507 / RFU, DGCR2 / Fold change vs veh, DGCR2 / RFU, WDSUB1 / Fold change vs veh, WDSUB1 / Fold change vs veh, HSP90B1 /// MIR3652 / RFU, ADSS / Fold change vs veh, ADSS / RFU, GK / Fold change vs veh, GK / RFU, ZNF148 / Fold change vs veh, ZNF148 / RFU, TAF9 / Fold change vs veh, TAF9 / RFU, SLC1A5 / Fold change vs veh, SLC1A5 / RFU, SLMO2 / Fold change vs veh, SLMO2 / RFU, ABCC4 / Fold change vs veh, ABCC4 / RFU, LOC101060439 /// RAP1B / Fold change vs veh, LOC101060439 /// RAP1B / RFU, RFX7 / Fold change vs veh, RFX7 / RFU, GTPBP10 / Fold change vs veh, GTPBP10 / RFU, CNEP1R1 / Fold change vs veh, CNEP1R1 / RFU, BIVM-ERCC5 /// ERCC5 / Fold change vs veh, BIVM-ERCC5 /// ERCC5 / RFU, ILF3 / Fold change vs veh, ILF3 / RFU 11762660_at / Fold change /veh 11762660_at / RFU VCAN (11757783_s_at) / Fold change /veh VCAN (11757783_s_at) / RFU DDX43 (11728927_at) / Fold change /veh DDX43 (11728927_at) / RFU KRT8 (11758188_x_at) / Fold change /veh KRT8 (11758188_x_at) / RFU NKD1 (11759106_at) / Fold change /veh NKD1 (11759106_at) / RFU SRD5A1 (11742802_a_at) / Fold change /veh SRD5A1 (11742802_a_at) / RFU TPSAB1 /// TPSB2 (11721975_s_at) / Fold change /veh TPSAB1 /// TPSB2 (11721975_s_at) / RFU GSTM3 (11746129_a_at) / Fold change /veh GSTM3 (11746129_a_at) / RFU IL23R (11737362_x_at) / Fold change /veh IL23R (11737362_x_at) / RFU TMEM51 (11727254_a_at) / Fold change /veh TMEM51 (11727254_a_at) / RFU PIWIL2 (11732686_x_at) / Fold change /veh PIWIL2 (11732686_x_at) / RFU ORM1 (11744905_x_at) / Fold change /veh ORM1 (11744905_x_at) / RFU CCDC152 (11743942_at) / Fold change /veh CCDC152 (11743942_at) / RFU ECM1 (11717891_a_at) / Fold change /veh ECM1 (11717891_a_at) / RFU IL23R (11748794_a_at) / Fold change /veh IL23R (11748794_a_at) / RFU TNFAIP8L3 (11732012_x_at) / Fold change /veh TNFAIP8L3 (11732012_x_at) / RFU MBOAT4 (11741988_at) / Fold change /veh MBOAT4 (11741988_at) / RFU 11764193_at / Fold change /veh 11764193_at / RFU TMEM53 (11763286_at) / Fold change /veh TMEM53 (11763286_at) / RFU MAGEB2 (11727129_at) / Fold change /veh MAGEB2 (11727129_at) / RFU TMEM200A (11744735_a_at) / Fold change /veh TMEM200A (11744735_a_at) / RFU CCDC152 (11751479_a_at) / Fold change /veh CCDC152 (11751479_a_at) / RFU FAM211A (11726209_a_at) / Fold change /veh FAM211A (11726209_a_at) / RFU RGS16 (11746705_a_at) / Fold change /veh RGS16 (11746705_a_at) / RFU VCAN (11755009_s_at) / Fold change /veh VCAN (11755009_s_at) / RFU RHOB (11743442_s_at) / Fold change /veh RHOB (11743442_s_at) / RFU RGS16 (11720943_a_at) / Fold change /veh RGS16 (11720943_a_at) / RFU RGS16 (11720944_at) / Fold change /veh RGS16 (11720944_at) / RFU, VPS4B / Fold change vs veh, VPS4B / RFU, CREB1 / Fold change vs veh, CREB1 / RFU, DNAJC13 / Fold change vs veh, DNAJC13 / RFU, GNAQ / Fold change vs veh, GNAQ / RFU, CDK5R1 / Fold change vs veh, CDK5R1 / RFU, ZRANB3 / Fold change vs veh, ZRANB3 / RFU, CUL4A / Fold change vs veh, CUL4A / RFU, CCNY / Fold change vs veh, CCNY / RFU, UFL1 / Fold change vs veh, UFL1 / RFU, COG3 / Fold change vs veh, COG3 / RFU, DIAPH2 / Fold change vs veh, DIAPH2 / RFU, SKA2 / Fold change vs veh, SKA2 / RFU, AFF3 / Fold change vs veh, AFF3 / RFU, LMF1 / Fold change vs veh, LMF1 / RFU, IPO11 / Fold change vs veh, IPO11 / RFU, DFFB / Fold change vs veh, DFFB / RFU, FOXP1 / Fold change vs veh, FOXP1 / RFU, CARD8 / Fold change vs veh, CARD8 / RFU, STRN3 / Fold change vs veh, STRN3 / RFU, ADK / Fold change vs veh, ADK / RFU, RASSF2 / Fold change vs veh, RASSF2 / RFU, WIPF1 / Fold change vs veh, WIPF1 / RFU, LARP1B / Fold change vs veh, LARP1B / RFU, RASA1 / Fold change vs veh, RASA1 / RFU, RB1 / Fold change vs veh, RB1 / RFU, PPFIA1 / Fold change vs veh, PPFIA1 / RFU, MAT2A / Fold change vs veh, MAT2A / RFU, CCT5 / Fold change vs veh, CCT5 / RFU, WDR92 / Fold change vs veh, WDR92 / RFU, CUX1 / Fold change vs veh, CUX1 / RFU, TTC7A / Fold change vs veh, TTC7A / RFU, TMEM135 / Fold change vs veh, TMEM135 / RFU, DEPTOR / Fold change vs veh, DEPTOR / RFU, CPM / Fold change vs veh, CPM / RFU, DNAJB6 / Fold change vs veh, DNAJB6 / RFU, CACNA2D3 / Fold change vs veh, CACNA2D3 / RFU, DTX4 / Fold change vs veh, DTX4 / RFU, TFCP2 / Fold change vs veh, TFCP2 / RFU, GMCL1 /// GMCL1P1 / Fold change vs veh, GMCL1 /// GMCL1P1 / RFU, AEBP2 / Fold change vs veh, AEBP2 / RFU, SNHG1 /// SNORD22 /// SNORD25 /// SNORD26 /// SNORD27 /// SNORD28 /// SNORD29 /// SNORD31 / Fold change vs veh, SNHG1 /// SNORD22 /// SNORD25 /// SNORD26 /// SNORD27 /// SNORD28 /// SNORD29 /// SNORD31 / Fold change (Aza/veh), C12orf56 (ProbeSet 11735607_a_at) / Fold change (ACY-1035/veh), C12orf56 (ProbeSet 11735607_a_at) / Fold change (Aza/veh), FGFR1OP (ProbeSet 11751329_s_at) / Fold change (ACY-1035/veh), FGFR1OP (ProbeSet 11751329_s_at) / Fold change (Aza/veh), VPS36 (ProbeSet 11739960_a_at) / Fold change (ACY-1035/veh), VPS36 (ProbeSet 11739960_a_at) / RFU SYPL1 (11715823_x_at) / Fold change /veh SYPL1 (11715823_x_at) / RFU IGFBP7 (11715501_s_at) / Fold change /veh IGFBP7 (11715501_s_at) / RFU REEP3 (11722064_at) / Fold change /veh REEP3 (11722064_at) / RFU IGLL1 (11728026_x_at) / Fold change /veh IGLL1 (11728026_x_at): dose or concentration left out as unconfirmed",
  "conditions": "ProbeSet 11727827_x_at; LIST B",
  "data": [
    {"compound": "Nc1ccc(-c2cccs2)cc1NC(=O)c1ccc2c(c1)cc(C1CC1)n2CCN1CCOCC1", "note": "[ACY-1035]", "values": [
      {"measurement": "RFU, NDUFAF7", "result": 59.45, "unit": "RFU"}
    ]}
  ]
}
